Experimental data: patent US20070099900A1, “Methods of modulating neurotrophin-mediated activity” (PainCeptor Pharma Corporation, priority 2005, published 2007)

Key:
PC12 (TrkA & p75) = assay: 125I-NGF binding displacement in PC12 cells; parameters: species or system rat; details: for NGF binding displacement, dose-response curve: PC12 cells expressing TrkA and p75
Method: The method for acquiring the PC12 data described in Table 1 is described herein in Example 1. Each experiment was done at least once with an n value of 4 for each data point. (n/a=not acquired)
All cells were incubated at 37° C. in 5% CO2. PC12 cells were maintained in RPMI-1640 medium supplemented with 10% fetal bovine serum (FBS). A875 human melanoma cells were maintained in DMEM with 10% FBS. HEK 293 cells were stably transfected with human TrkA plasmid (see below) and maintained in DMEM with 10% FBS and G418 (600 μg/mL) for selection.
NGF binding was evaluated using methods familiar to those who are skilled in the art. Briefly, cells expressing one or both NGF receptors (PC12: TrkA+p75; A875: p75 alone; HEK_TrkA: TrkA alone) were harvested by replacing the medium with calcium-magnesium free balanced salt (Grey's) solution and incubating at 37° C. for 15 min. For NGF binding, cells were resuspended at a concentration of 2×10^6 cells/mL in HEPES-Krebs-Ringer (HKR) buffer (10 mM HEPES; 125 mM NaCl; 4.8 mM KCl; 1.3 mM CaCl2; 1.2 mM MgSO4; 1.2 mM KH2PO4; 1 mg/ml BSA; 1 mg/ml glucose; pH 7.4) and exposed to ^125I-NGF (˜0.1 nM) in the presence or absence of varying concentrations of the compound. Non-specific binding was determined for reference by incubating ^125I-NGF with an excess of non-radioactive NGF in the abence of compound. Following a two-hour incubation period at 4° C., ^125I-NGF bound to the cells was quantified in a gamma radiation counter following separation from unbound NGF by filtration or centrifugation through glycerol (10% in HKR). Inhibition of binding was calculated as a percent of the specific binding (calculated as the differential between ^125I-NGF binding in the absence and presence of an excess of non-radioactive NGF without compound). Dose-response inhibition curves were typically generated with seven concentrations of a given compound, with three replicates for each concentration. For most compounds, multiple dose-response curves were generated.
The IC50 data shown in Table 1 were acquired using the procedure described herein using PC12 cells.

[1] = test system: NGF-induced Erk 1/2 phosphorylation in PC12 cells; assay: NGF-induced Erk 1/2 phosphorylation, Western blot; type: cell-based, rat; details: NGF 5 ng/mL
Method: This assay is useful for establishing that the compounds of the invention are functional NGF antagonists, not receptor agonists (an agonist could conceivably block NGF binding but actually activate the receptor). Erk 1/2 is a kinase activated down stream of TrkA and is a well studied member of the NGF-induced signal transduction cascade.
PC12 cells expressing TrkA and p75 were acutely exposed to 5 ng/mL NGF (15 min; 37° C.; 5% CO2) that was pre-incubated (30 min; room temperature) with or without the compounds. Cells were lysed in Laemmli sample buffer (for SDS-PAGE) or a lysis buffer containing Triton X-100 (for ELISA). Following SDS-PAGE, proteins were electroblotted onto nitrocellulose and immunoprobed for phosphorylated Erk 1 and 2. Blocking and primary antibody incubations of immunoblots were performed in Tris-buffered saline-Tween (10 mM Tris, pH 8.0, 150 mM NaCl, and 0.2% Tween 20) supplemented with 5% (w/v) bovine serum albumin (BSA); secondary antibody incubations were performed in 5% (w/v) dried skim milk powder. Immunoreactive bands were detected by chemiluminescence.

[2] = Writhing Test (acetic acid abdominal contraction test); type: in vivo; details: mice
Method: The acetic acid abdominal contraction test (Martinez et al., Pain 1999; 81: 179) was used to determine the efficacy of different compounds in a model of acute visceral chemical nociception. […] Compound or vehicle was administered (i.p. or s.c.) 15-45 minutes prior to the acetic acid injection. Each episode of writhing is characterized by a lengthwise stretching of the torso with a concomitant arching of the back.
Statistical analysis was performed using Prism™ 4.01 software package (GraphPad, San Diego, Calif., USA). The difference in response levels between treatment groups and control vehicle group was analyzed using an ANOVA followed by Bonferroni's method for post-hoc pair-wise comparisons. A p value <0.05 was considered to be significant
Animals were treated with vehicle (VEH) or Compound 91 (5 mg/kg i.p.; [CMP 1] and 50 mg/kg i.p. [CMP 2])) 10-20 minutes before the intraperitoneal injection of acetic acid, as described in this example.

O=c1c2ccc3c4c(ccc(c24)c2nc4ccccc4n12)c(=O)n1c2ccccc2nc31.[K+] [Compound 92, 1,3,6-trioxo-1,2,3,6-tetrahydro-benzo[lmn]benzo[4,5]imidazo[2,1-b][3,8]diphenanthroline potassium salt]
PC12 (TrkA & p75) Single point (% max binding) Mean (PC12 (TrkA & p75); compound concentration 50 μM): * (* > 50)

O=C(O)CCCN1C(=O)c2ccc3c4c(ccc(c24)C1=O)C(=O)OC3=O [Compound 94]
PC12 (TrkA & p75) Single point (% max binding) Mean (PC12 (TrkA & p75); compound concentration 25 μM): *** (0 > *** > 30)

O=C(O)c1ccc(Cl)c(N2C(=O)c3ccc4c5c(ccc(c35)C2=O)C(=O)OC4=O)c1 [Compound 58, 4-Chloro-3-(1,3,6,8-tetraoxo-1,3,6,8-tetrahydro-2-oxa-7-aza-pyren-7-yl)-benzoic acid]
PC12 (TrkA & p75) Single point (% max binding) Mean (PC12 (TrkA & p75); compound concentration 50 μM): *** (0 > *** > 30)

O=C(O)c1ccc(Cl)c(N2C(=O)c3ccc4c(=O)n5c6cc(Cl)ccc6nc5c5ccc(c3c45)C2=O)c1 [Compound 99, 2-(5-Carboxy-2-chloro-phenyl)-1,3,6-trioxo-1,2,3,6-tetrahydro-9-chloro-benzo[lmn]benzo[4,5]imidazo[2,1-b][3,8]phenanthroline]
PC12 (TrkA & p75) Single point (% max binding) Mean (PC12 (TrkA & p75); compound concentration 10 μM): *** (0 > *** > 30)

O=C(O)CCCN1C(=O)c2ccc3c(=O)n4c5cc(C(=O)O)ccc5nc4c4ccc(c2c34)C1=O [Compound 95, 2-(3-Carboxy-propyl)-1,3,6-trioxo-1,2,3,6-tetrahydro-benzo[lmn]benzo[4,5]imidazo[2,1-b][3,8]phenanthroline-9-carboxylic acid]
PC12 (TrkA & p75) Single point (% max binding) Mean (PC12 (TrkA & p75); compound concentration 25 μM): * (* > 50)

O=C(O)c1ccc(Cl)c(N2C(=O)c3ccc4c5c(ccc(c35)C2=O)C(=O)N(c2cc(C(=O)O)ccc2Cl)C4=O)c1 [Compound 18, 3-[7-(1-chloro-4-carboxy-phenyl)-1,3,6,8-tetraoxo-3,6,7,8-tetrahydro-1H-benzo[lmn][3,8]phenanthrolin-2-yl]-4-chloro-benzoic acid]
NGF binding displacement, dose-response curve (PC12 (TrkA & p75)): effectively blocks NGF binding
PC12 (TrkA & p75) Single point (% max binding) Mean (PC12 (TrkA & p75); compound concentration 50 μM): *** (0 > *** > 30)

O=C(O)c1ccc(Cl)c(N2C(=O)c3ccc4c(=O)n5c6cc([N+](=O)[O-])ccc6nc5c5ccc(c3c45)C2=O)c1 [Compound 100, 2-(5-Carboxy-2-chloro-phenyl)-1,3,6-trioxo-1,2,3,6-tetrahydro-9-nitro-benzo[lmn]benzo[4,5]imidazo[2,1-b][3,8]phenanthroline]
PC12 (TrkA & p75) Single point (% max binding) Mean (PC12 (TrkA & p75); compound concentration 10 μM): *** (0 > *** > 30)

O=C(O)c1cccc(N2C(=O)c3ccc4c(=O)n5c6cc(C(=O)O)ccc6nc5c5ccc(c3c45)C2=O)c1 [Compound 93, 2-(3-Carboxy-phenyl)-1,3,6-trioxo-1,2,3,6-tetrahydro-benzo[lmn]benzo[4,5]imidazo[2,1-b][3,8]phenanthroline-9-carboxylic acid]
PC12 (TrkA & p75) Single point (% max binding) Mean (PC12 (TrkA & p75); compound concentration 50 μM): ** (30 > ** > 50)

O=C(O)CCCN1C(=O)c2ccc3c4c(ccc(c24)C1=O)C(=O)N(c1cc(C(=O)O)ccc1Cl)C3=O [Compound 59, 3-[7-(3-Carboxy-propyl)-1,3,6,8-tetraoxo-3,6,7,8-tetrahydro-1H-benzo[lmn][3,8]phenanthrolin-2-yl]-4-chloro-benzoic acid]
PC12 (TrkA & p75) Single point (% max binding) Mean (PC12 (TrkA & p75); compound concentration 50 μM): *** (0 > *** > 30)

COC(=O)c1ccc2nc3c4ccc5c6c(ccc(c(=O)n3c2c1)c64)C(=O)N(c1cc(C(=O)O)ccc1Cl)C5=O [Compound 102, Methyl-2-(5-Carboxy-2-chloro-phenyl)-1,3,6-trioxo-1,2,3,6-tetrahydro-benzo[lmn]benzo[4,5]imidazo[2,1-b][3,8]phenanthroline-9-carboxylic acid ester]
PC12 (TrkA & p75) Single point (% max binding) Mean (PC12 (TrkA & p75); compound concentration 10 μM): * (* > 50)

COc1ccc2nc3c4ccc5c6c(ccc(c(=O)n3c2c1)c64)C(=O)N(c1cc(C(=O)O)ccc1Cl)C5=O [Compound 101, 2-(5-Carboxy-2-chloro-phenyl)-1,3,6-trioxo-1,2,3,6-tetrahydro-9-methoxy-benzo[lmn]benzo[4,5]imidazo[2,1-b][3,8]phenanthroline]
PC12 (TrkA & p75) Single point (% max binding) Mean (PC12 (TrkA & p75); compound concentration 10 μM): ** (30 > ** > 50)

O=C([O-])c1ccc2nc3c4ccc5c6c(ccc(c(=O)n3c2c1)c46)c(=O)n1c2cc(C(=O)[O-])ccc2nc51.[Na+].[Na+] [Compound 91]
NGF binding displacement, dose-response curve (PC12 (TrkA & p75)): effectively blocks NGF binding
Inhibition of NGF-induced Erk 1/2 phosphorylation [1]: inhibits NGF-induced Erk 1/2 phosphorylation
Antinociceptive effect in the Writhing Test ([2]; 5 and 50 mg/kg i.p., p<0.01 vs vehicle): significant antinociceptive effects
Chemically-induced abdominal contractions (number in 30 minutes) ([2]; i.p., n=6, vehicle 58±4, dose of the value (5 or 50 mg/kg) not stated): 16±9

O=C1c2ccc3c4c(ccc(c24)C(=O)N1c1ccc(S(=O)(=O)O)cc1)C(=O)N(c1ccc(S(=O)(=O)O)cc1)C3=O [Compound 54, 4-(1,3,6,8-Tetraoxo-7-(4-benzenesulfonic acid)-3,6,7,8-tetrahydro-1H-benzo[lmn][3,8]phenanthrolin-2-yl)-benzenesulfonic acid]
PC12 (TrkA & p75) Single point (% max binding) Mean (PC12 (TrkA & p75); compound concentration 50 μM): *** (0 > *** > 30)

O=C(O)c1ccc(Cl)c(N2C(=O)c3ccc4c(=O)n5c6ccccc6nc5c5ccc(c3c45)C2=O)c1 [Compound 98, 2-(5-Carboxy-2-chloro-phenyl)-1,3,6-trioxo-1,2,3,6-tetrahydro-benzo[lmn]benzo[4,5]imidazo[2,1-b][3,8]phenanthroline-9]
PC12 (TrkA & p75) Single point (% max binding) Mean (PC12 (TrkA & p75); compound concentration 25 μM): *** (0 > *** > 30)
